Values quoted from earlier work as cited in article PMC7395068, “The evolution of strategies to minimise the risk of human drug-induced liver injury (DILI) in drug discovery and development” (Archives of Toxicology, 2020).
Like-named read-outs stand apart in the source and are kept apart here.

Experiments:
[1] = system: THLE or HepG2 cells, isolated mitochondria, BSEP; conditions: cited from earlier work
[2] = cited from earlier work
[3] = cited from earlier work; remark: listed apart in the source
[4] = system: primary human hepatocytes, NIH3T3 fibroblasts, BSEP, CYP3A4; conditions: cited from earlier work
[5] = In vitro Assay, ref Schadt 2015

Question: Which “Partition Hybrid HRM Score” value [1] does the source give for `C[C@]12CC[C@@H]3c4ccc(O)cc4CC[C@H]3[C@@H]1CC[C@@H]2O` [estradiol] here?
Answer: Its value is “-VE”.

Question: And the “Ro2 Hybrid HRM Score” value [1]?
Answer: Its value is “-VE”.

Question: What about the “DILI +VE (5-8), DILI -VE (-4)” value ([2]; in vivo) of the same molecule?
Answer: Its value is “+VE”.

Question: What about the DILI severity category ([2]; in vivo) of the same molecule?
Answer: Its DILI severity category is “vLess-DILI-Concern”.

Question: With `C=C(CC)C(=O)c1ccc(OCC(=O)O)c(Cl)c1Cl` [ethacrynic acid] as the molecule, how does the “Partition Hybrid HRM Score, In vitro Assay” value ([1]; Partition hybrid, ref Aleo 2019) read?
Answer: Its value is “+VE”.

Question: And the “Ro2 Hybrid HRM Score, In vitro Assay” value ([1]; Rule of Two hybrid, ref Aleo 2019)?
Answer: Its value is “+VE”.

Question: With `O=C(CCCN1CCC(O)(c2ccc(Cl)cc2)CC1)c1ccc(F)cc1` [haloperidol] as the molecule, how does the “Partition Hybrid HRM Score” value ([1]; In vitro Assay, ref Aleo 2019) read?
Answer: Its value is “-VE”.

Question: What about the “Ro2 Hybrid HRM Score” value ([1]; In vitro Assay, ref Aleo 2019) of the same molecule?
Answer: Its value is “-VE”.

Question: Which “Partition Hybrid HRM Score” value [1] does the source give for `CC(C)(C)NC(=O)[C@@H]1CN(Cc2cccnc2)CCN1C[C@@H](O)C[C@@H](Cc1ccccc1)C(=O)N[C@H]1c2ccccc2C[C@H]1O` [indinavir] here?
Answer: Its value is “+VE”.

Question: What about the “Ro2 Hybrid HRM Score” value [1] of the same molecule?
Answer: The value was “+VE”.

Question: Which “In vivo DILI” value ([3]; ref Schadt 2015) does the source give for `COC(=O)C1=C(C)NC(C)=C(C(=O)OC(C)C)C1c1cccc2nonc12` (stereo not drawn) [isradipine] here?
Answer: Its value is “-VE”.

Question: And the “DILI +VE (5-8), DILI -VE (-4)” value ([2]; ref Chen 2016)?
Answer: Its value is “+VE”.

Question: And the DILI severity category ([2]; ref Chen 2016)?
Answer: The DILI severity category was “vLess-DILI-Concern”.

Question: And the “Cellular toxicity (3T3 cells)” value [4, 5]?
Answer: The value was “+VE”.

Question: And the “Combined Assay” value [4, 5]?
Answer: The value was “-VE”.

Question: And the “GSH adduct HML” value [4, 5]?
Answer: The value was “+VE”.

Question: What about the Hepatocyte cellular toxicity [4, 5] of the same molecule?
Answer: The Hepatocyte cellular toxicity was “+VE”.

Question: What about the “MitoTox 3T3” value [4, 5] of the same molecule?
Answer: Its value is “-VE”.

Question: What about the “TDI CYP3A4” value [4, 5] of the same molecule?
Answer: Its value is “-VE”.

Question: And the hBSEP inhibition [4, 5]?
Answer: Its hBSEP inhibition is “+VE”.

Question: Which results are given for `CCCNS(=O)(=O)Nc1ncnc(OCCOc2ncc(Br)cn2)c1-c1ccc(Br)cc1` [macitentan]?
Answer: Partition Hybrid HRM Score ([1]; In vitro Assay, ref Aleo 2019): +VE; Ro2 Hybrid HRM Score ([1]; In vitro Assay, ref Aleo 2019): +VE; In vivo DILI ([3]; ref Aleo 2019): +VE

Question: Which “Partition Hybrid HRM Score” value ([1]; In vitro Assay, ref Aleo 2019) does the source give for `COCCc1ccc(OCC(O)CNC(C)C)cc1` (stereo not drawn) [metoprolol] here?
Answer: The value was “+VE”.

Question: And the “Ro2 Hybrid HRM Score” value ([1]; In vitro Assay, ref Aleo 2019)?
Answer: The value was “-VE”.

Question: Which results are given for `Cc1ncc2n1-c1ccc(Cl)cc1C(c1ccccc1F)=NC2` [midazolam]?
Answer: In vivo DILI ([3]; ref Schadt 2015): -VE; DILI +VE (5-8), DILI -VE (-4) ([2]; ref Chen 2016): -VE; DILI severity category ([2]; ref Chen 2016): vNo-DILI-Concern; Cellular toxicity (3T3 cells) [4]: -VE; Combined Assay [4]: +VE; GSH adduct HML [4]: +VE; Hepatocyte cellular toxicity [4]: +VE; MitoTox 3T3 [4]: +VE; TDI CYP3A4 [4]: -VE; hBSEP inhibition [4]: +VE

Question: Which results are given for `OC(CNCC(O)C1CCc2cc(F)ccc2O1)C1CCc2cc(F)ccc2O1` (stereo not drawn) [nebivolol]?
Answer: In vivo DILI ([3]; ref Schadt 2015): -VE; DILI +VE (5-8), DILI -VE (-4) ([2]; ref Chen 2016): -VE; DILI severity category ([2]; ref Chen 2016): Ambiguous DILI-concern; Cellular toxicity (3T3 cells) [4, 5]: -VE; Combined Assay [4, 5]: -VE; GSH adduct HML [4, 5]: -VE; Hepatocyte cellular toxicity [4, 5]: -VE; MitoTox 3T3 [4, 5]: -VE; TDI CYP3A4 [4, 5]: -VE; hBSEP inhibition [4, 5]: -VE

Question: Which results are given for `CCCc1nc(C(C)(C)O)c(C(=O)O)n1Cc1ccc(-c2ccccc2-c2nnn[nH]2)cc1` [olmesartan]?
Answer: In vivo DILI ([3]; […]): -VE; In vivo DILI ([3]; ref Schadt 2015): -VE; DILI +VE (5-8), DILI -VE (-4) ([2]; ref Chen 2016): -VE; DILI severity category ([2]; ref Chen 2016): Ambiguous DILI-concern; Cellular toxicity (3T3 cells) [4, 5]: -VE; Combined Assay [4, 5]: -VE; GSH adduct HML [4, 5]: -VE; Hepatocyte cellular toxicity [4, 5]: -VE; MitoTox 3T3 [4, 5]: -VE; TDI CYP3A4 [4, 5]: -VE; hBSEP inhibition [4, 5]: -VE

Question: For `Cc1ccc(Nc2nccc(N(C)c3ccc4c(C)n(C)nc4c3)n2)cc1S(N)(=O)=O` [pazopanib], which “Partition Hybrid HRM Score” value ([1]; In vitro Assay, ref Aleo 2019) is on record?
Answer: Its value is “+VE”.

Question: What about the “Ro2 Hybrid HRM Score” value ([1]; In vitro Assay, ref Aleo 2019) of the same molecule?
Answer: Its value is “+VE”.

Question: With `COc1ccccc1OCC(O)CN1CCN(CC(=O)Nc2c(C)cccc2C)CC1` (stereo not drawn) [ranolazine] as the molecule, how does the “In vivo DILI” value ([3]; ref Schadt 2015) read?
Answer: Its value is “-VE”.

Question: What about the “DILI +VE (5-8), DILI -VE (-4)” value ([2]; ref Chen 2016) of the same molecule?
Answer: Its value is “-VE”.

Question: What about the DILI severity category ([2]; ref Chen 2016) of the same molecule?
Answer: Its DILI severity category is “vNo-DILI-Concern”.

Question: And the “Cellular toxicity (3T3 cells)” value [4]?
Answer: The value was “-VE”.

Question: What about the “Combined Assay” value [4] of the same molecule?
Answer: Its value is “+VE”.

Question: And the “GSH adduct HML” value [4]?
Answer: The value was “-VE”.

Question: And the Hepatocyte cellular toxicity [4]?
Answer: The Hepatocyte cellular toxicity was “-VE”.

Question: What about the “MitoTox 3T3” value [4] of the same molecule?
Answer: Its value is “+VE”.

Question: And the “TDI CYP3A4” value [4]?
Answer: Its value is “-VE”.

Question: And the hBSEP inhibition [4]?
Answer: Its hBSEP inhibition is “-VE”.

Question: For `O=C(O)COc1ccc(C(=O)c2cccs2)c(Cl)c1Cl` [ticrynafen], which “Partition Hybrid HRM Score” value ([1]; In vitro Assay, ref Aleo 2019) is on record?
Answer: The value was “+VE”.

Question: What about the “Ro2 Hybrid HRM Score” value ([1]; In vitro Assay, ref Aleo 2019) of the same molecule?
Answer: The value was “+VE”.

Question: And the “In vivo DILI” value ([3]; ref Aleo 2019)?
Answer: Its value is “+VE”.

Question: Which results are given for `Cc1ccc(/C(=C\CN2CCCC2)c2ccccn2)cc1` [triprolidine]?
Answer: Partition Hybrid HRM Score ([1]; In vitro Assay, ref Aleo 2019): -VE; Ro2 Hybrid HRM Score ([1]; In vitro Assay, ref Aleo 2019): -VE

Question: For `CCCCC(=O)N(Cc1ccc(-c2ccccc2-c2nnn[nH]2)cc1)[C@H](C(=O)O)C(C)C` [valsartan], which “Ro2 Hybrid HRM Score” value [1] is on record?
Answer: The value was “+VE”.

Question: What about the “DILI +VE (5-8), DILI -VE (-4)” value ([2]; in vivo) of the same molecule?
Answer: The value was “+VE”.

Question: And the DILI severity category ([2]; in vivo)?
Answer: Its DILI severity category is “vLess-DILI-Concern”.

Question: For `Cc1ccc(-c2nc3ccc(C)cn3c2CC(=O)N(C)C)cc1` [zolpidem], which “In vivo DILI” value ([3]; […]) is on record?
Answer: Its value is “-VE”.

Question: What about the “In vivo DILI” value ([3]; ref Schadt 2015) of the same molecule?
Answer: The value was “-VE”.

Question: What about the “DILI +VE (5-8), DILI -VE (-4)” value ([2]; ref Chen 2016) of the same molecule?
Answer: Its value is “-VE”.

Question: And the DILI severity category ([2]; ref Chen 2016)?
Answer: The DILI severity category was “Ambiguous DILI-concern”.

Question: What about the “Cellular toxicity (3T3 cells)” value [4] of the same molecule?
Answer: The value was “-VE”.

Question: What about the “Combined Assay” value [4] of the same molecule?
Answer: Its value is “-VE”.

Question: What about the “GSH adduct HML” value [4] of the same molecule?
Answer: Its value is “-VE”.

Question: And the Hepatocyte cellular toxicity [4]?
Answer: Its Hepatocyte cellular toxicity is “-VE”.

Question: And the “MitoTox 3T3” value [4]?
Answer: The value was “-VE”.

Question: What about the “TDI CYP3A4” value [4] of the same molecule?
Answer: Its value is “-VE”.

Question: And the hBSEP inhibition [4]?
Answer: The hBSEP inhibition was “-VE”.
